Test results as given in patent publication US20240423992A1, “BIOMARKERS FOR TREATING LIVER DISORDERS WITH THR-B AGONISTS AND RELATED USES” (Madrigal Pharmaceuticals, Inc., priority 2023, published 2024).

Columns and labels:
[1] = tested on: patients with Nonalcoholic Steatohepatitis; test: Phase 3 trial in Nonalcoholic Steatohepatitis (Example 2): thyroid hormone levels; format: in vivo, human
Method: (§1) A randomized, double-blind, placebo-controlled Phase 3 trial was conducted. Patients were randomly assigned to receive resmetirom 80 mg, resmetirom 100 mg, or placebo administered orally once daily. Screening biopsy results were used as baseline for histologic variables and a second biopsy was performed at Week 52.

[2] = tested on: patients with Nonalcoholic Steatohepatitis; test: Phase 3 trial in Nonalcoholic Steatohepatitis (Example 2): sex hormone levels; format: in vivo, human; conditions: for Estradiol (female) LS Mean Difference / Estradiol (male) LS Mean Difference / FSH (female) LS Mean Difference / FSH (male) LS Mean Difference / Free testosterone (female) LS Mean Difference / Free testosterone (male) LS Mean Difference / LH (female) LS Mean Difference / LH (male) LS Mean Difference / SHBG (female) LS Mean Difference in % CFB / SHBG (female) LS Mean Difference in CFB / SHBG (male) LS Mean Difference in % CFB / SHBG (male) LS Mean Difference in CFB / SHBG LS Mean Difference in % CFB / SHBG LS Mean Difference in CFB / Testosterone (female) LS Mean Difference / Testosterone (male) LS Mean Difference / Estradiol (female) LS Mean CFB (SE) / Estradiol (male) LS Mean CFB (SE) / FSH (female) LS Mean CFB (SE) / FSH (male) LS Mean CFB (SE) / Free testosterone (female) LS Mean CFB (SE) / Free testosterone (male) LS Mean CFB (SE) / LH (female) LS Mean CFB (SE) / LH (male) LS Mean CFB (SE) / SHBG (female) LS Mean % CFB (SE) / SHBG (female) LS Mean CFB (SE) / SHBG (male) LS Mean % CFB (SE) / SHBG (male) LS Mean CFB (SE) / SHBG LS Mean % CFB (SE) / SHBG LS Mean CFB (SE) / Testosterone (female) LS Mean CFB (SE) / Testosterone (male) LS Mean CFB (SE): Week 52
Method: as §1

[3] = Resmetirom 100 mg, Week 52, thyroxine-treated
[4] = independent of thyroxine replacement

CC(C)c1cc(Oc2c(Cl)cc(-n3nc(C#N)c(=O)[nH]c3=O)cc2Cl)n[nH]c1=O [Resmetirom, 2-[3,5-dichloro-4-[(6-oxo-5-propan-2-yl-1H-pyridazin-3-yl)oxy]phenyl]-3,5-dioxo-1,2,4-triazine-6-carbonitrile]
FT4 LS Mean % CFB (SE) [1, 3]: −20.6 (3.3) % | FT4 LS Mean CFB (SE) [1, 3]: −0.26 (0.037) ng/dL | TBG CFB, LS Mean Difference from PBO [1, 3]: -4.6 mg/L | TBG LS Mean CFB (SE) [1, 3]: −3.1 (1.3) mg/L | TSH CFB, LS Mean Difference from PBO [1, 3]: 0.09 mIU/L | TSH LS Mean CFB (SE) [1, 3]: −0.13 (0.25) mIU/L | rT3 CFB, LS Mean Difference from PBO [1, 3]: -6.3 ng/dL | rT3 LS Mean CFB (SE) [1, 3]: −6.3 (0.85) ng/dL | Thyroid hormone indices ([1]; in vivo): not clinically impacted | effect on free triiodothyronine (FT3) [1, 4]: no effect | effect on thyroid-stimulating hormone (TSH) [1, 4]: no effect | reduction of free thyroxine (FT4) ([1]; resmetirom groups): 16-19% | Estradiol (female) LS Mean Difference ([2]; Resmetirom 80 mg from PBO): 15.9 ng/L | Estradiol (male) LS Mean Difference ([2]; Resmetirom 80 mg from PBO): 9.0 ng/L | FSH (female) LS Mean Difference ([2]; Resmetirom 80 mg from PBO): 0.79 mIU/mL | FSH (male) LS Mean Difference ([2]; Resmetirom 80 mg from PBO): 1.1 mIU/mL | Free testosterone (female) LS Mean Difference ([2]; Resmetirom 80 mg from PBO): 0 nmol/L | Free testosterone (male) LS Mean Difference ([2]; Resmetirom 80 mg from PBO): 0.02 nmol/L | LH (female) LS Mean Difference ([2]; Resmetirom 80 mg from PBO): −0.33 mIU/mL | LH (male) LS Mean Difference ([2]; Resmetirom 80 mg from PBO): 1.8 mIU/mL | SHBG (female) LS Mean Difference in % CFB ([2]; Resmetirom 80 mg from PBO): 177.4% | SHBG (female) LS Mean Difference in CFB ([2]; Resmetirom 80 mg from PBO): 73.3 nmol/L | SHBG (male) LS Mean Difference in % CFB ([2]; Resmetirom 80 mg from PBO): 107.3% | SHBG (male) LS Mean Difference in CFB ([2]; Resmetirom 80 mg from PBO): 40.4 nmol/L | SHBG LS Mean Difference in % CFB ([2]; Resmetirom 80 mg from PBO): 148.5% | SHBG LS Mean Difference in CFB ([2]; Resmetirom 80 mg from PBO): 58.9 nmol/L | Testosterone (female) LS Mean Difference ([2]; Resmetirom 80 mg from PBO): 0.15 µg/L | Testosterone (male) LS Mean Difference ([2]; Resmetirom 80 mg from PBO): 2.2 µg/L | Estradiol (female) LS Mean CFB (SE) ([2]; Resmetirom 80 mg): 17.7 (8.0) ng/L | Estradiol (male) LS Mean CFB (SE) ([2]; Resmetirom 80 mg): 8.9 (1.3) ng/L | FSH (female) LS Mean CFB (SE) ([2]; Resmetirom 80 mg): −0.54 (0.89) mIU/mL | FSH (male) LS Mean CFB (SE) ([2]; Resmetirom 80 mg): 1.1 (0.24) mIU/mL | Free testosterone (female) LS Mean CFB (SE) ([2]; Resmetirom 80 mg): 0 (0.001) nmol/L | Free testosterone (male) LS Mean CFB (SE) ([2]; Resmetirom 80 mg): 0.04 (0.009) nmol/L | LH (female) LS Mean CFB (SE) ([2]; Resmetirom 80 mg): −0.93 (0.69) mIU/mL | LH (male) LS Mean CFB (SE) ([2]; Resmetirom 80 mg): 1.7 (0.30) mIU/mL | SHBG (female) LS Mean % CFB (SE) ([2]; Resmetirom 80 mg): 193.0 (15.3) % | SHBG (female) LS Mean CFB (SE) ([2]; Resmetirom 80 mg): 74.1 (6.0) nmol/L | SHBG (male) LS Mean % CFB (SE) ([2]; Resmetirom 80 mg): 108.0 (11.2) % | SHBG (male) LS Mean CFB (SE) ([2]; Resmetirom 80 mg): 41.9 (4.2) nmol/L | SHBG LS Mean % CFB (SE) ([2]; Resmetirom 80 mg): 157.5 (10.2) % | SHBG LS Mean CFB (SE) ([2]; Resmetirom 80 mg): 60.2 (4.0) nmol/L | Testosterone (female) LS Mean CFB (SE) ([2]; Resmetirom 80 mg): 0.15 (0.019) ug/L | Testosterone (male) LS Mean CFB (SE) ([2]; Resmetirom 80 mg): 2.6 (0.26) ug/L | Estradiol (female) LS Mean Difference ([2]; Resmetirom 100 mg from PBO): 28.8 ng/L | Estradiol (male) LS Mean Difference ([2]; Resmetirom 100 mg from PBO): 11.2 ng/L | FSH (female) LS Mean Difference ([2]; Resmetirom 100 mg from PBO): 2.0 mIU/mL | FSH (male) LS Mean Difference ([2]; Resmetirom 100 mg from PBO): 1.7 mIU/mL | Free testosterone (female) LS Mean Difference ([2]; Resmetirom 100 mg from PBO): 0 nmol/L | Free testosterone (male) LS Mean Difference ([2]; Resmetirom 100 mg from PBO): 0.01 nmol/L | LH (female) LS Mean Difference ([2]; Resmetirom 100 mg from PBO): 1.4 mIU/mL | LH (male) LS Mean Difference ([2]; Resmetirom 100 mg from PBO): 2.0 mIU/mL | SHBG (female) LS Mean Difference in % CFB ([2]; Resmetirom 100 mg from PBO): 236.2% | SHBG (female) LS Mean Difference in CFB ([2]; Resmetirom 100 mg from PBO): 93.2 nmol/L | SHBG (male) LS Mean Difference in % CFB ([2]; Resmetirom 100 mg from PBO): 173.3% | SHBG (male) LS Mean Difference in CFB ([2]; Resmetirom 100 mg from PBO): 59.3 nmol/L | SHBG LS Mean Difference in % CFB ([2]; Resmetirom 100 mg from PBO): 208.4% | SHBG LS Mean Difference in CFB ([2]; Resmetirom 100 mg from PBO): 79.4 nmol/L | Testosterone (female) LS Mean Difference ([2]; Resmetirom 100 mg from PBO): 0.19 µg/L | Testosterone (male) LS Mean Difference ([2]; Resmetirom 100 mg from PBO): 3.0 µg/L | Estradiol (female) LS Mean CFB (SE) ([2]; Resmetirom 100 mg): 30.6 (8.3) ng/L | Estradiol (male) LS Mean CFB (SE) ([2]; Resmetirom 100 mg): 11.0 (1.3) ng/L | FSH (female) LS Mean CFB (SE) ([2]; Resmetirom 100 mg): 0.63 (0.92) mIU/mL | FSH (male) LS Mean CFB (SE) ([2]; Resmetirom 100 mg): 1.7 (0.24) mIU/mL | Free testosterone (female) LS Mean CFB (SE) ([2]; Resmetirom 100 mg): 0 (0.001) nmol/L | Free testosterone (male) LS Mean CFB (SE) ([2]; Resmetirom 100 mg): 0.03 (0.009) nmol/L | LH (female) LS Mean CFB (SE) ([2]; Resmetirom 100 mg): 0.80 (0.72) mIU/mL | LH (male) LS Mean CFB (SE) ([2]; Resmetirom 100 mg): 1.9 (0.30) mIU/mL | SHBG (female) LS Mean % CFB (SE) ([2]; Resmetirom 100 mg): 251.8 (16.0) % | SHBG (female) LS Mean CFB (SE) ([2]; Resmetirom 100 mg): 94.0 (6.3) nmol/L | SHBG (male) LS Mean % CFB (SE) ([2]; Resmetirom 100 mg): 174.0 (10.9) % | SHBG (male) LS Mean CFB (SE) ([2]; Resmetirom 100 mg): 60.8 (4.1) nmol/L | SHBG LS Mean % CFB (SE) ([2]; Resmetirom 100 mg): 217.4 (10.3) % | SHBG LS Mean CFB (SE) ([2]; Resmetirom 100 mg): 80.7 (4.1) nmol/L | Testosterone (female) LS Mean CFB (SE) ([2]; Resmetirom 100 mg): 0.19 (0.020) ug/L | Testosterone (male) LS Mean CFB (SE) ([2]; Resmetirom 100 mg): 3.5 (0.25) ug/L | Change in sex hormones from baseline ([2]; in vivo): unchanged, except for SHBG increases
